Where two headings read alike, the source gives them in different places.
What was measured:
PARP1 protein = PARP1 protein level by Western blot; assay type: cell-based, human; conditions: HCC1937 cells irrespective of BRCA1 status, 4 h treatment
Protocol: For subcellular fractionation, cells were trypsinized and washed with cold PBS solution twice. […] Following centrifugation at 1,000 g for 5 min, the supernatant was collected (i.e., cytoplasmic fraction) and pellets were washed with the same buffer twice. The washed samples were extracted for 40 min on ice with fractionation buffer containing 0.5% NP-40 for nuclear fraction. All the samples were sonicated and clarified by centrifugation at 16,000 g for 15 min. Protein concentrations of all fractions were determined with Bio-Rad Protein Assay (Bio-Rad Laboratories, Hercules, Calif.). Immunoblotting was performed as described previously (21,22). Briefly, equal amounts of boiled protein samples were subjected to SDS-polyacrylamide gel electrophoresis (PAGE) and transferred onto nitrocellulose membranes (Bio-Rad Laboratories). Membranes were blocked for 1 hour in 3% BSA in Tris buffered saline containing 0.05% Tween 20 (TBST) and incubated for 1 hour with primary antibody (1:500 or 1:1000) diluted in TBST containing 1% BSA. After two washes with TBST, membranes were incubated for 1 hour with horseradish peroxidase-conjugated secondary Abs (1:3000 dilution) at room temperature. The immunoblots were visualized on film with the West-Q chemi-luminescence kit (GenDEPOT, Barker, Tex.).

UWB1.289 + BRCA1 = assay: Cytotoxicity, UWB1.289+BRCA1 cells; assay type: cell-based, human; conditions: read-out: IC50, mean ± SEM
Protocol: (§1) All cell lines were acquired from the American Type Culture Collection (Manassas, Va., USA). Cells were maintained in RPMI 1640 medium (Mediatech) with 10% fetal bovine serum, 2 mM glutamine, and 100 U of penicillin and 100 μg of streptomycin per ml of medium (Sigma) at 37° C. in 5% CO2. To isolate HCC1437+BRCA1 cells, parental HCC1937 cells were transfected with pcDNA3.1 plasmid expressing full-length BRCA1 cDNA. Stable transfectant clones were selected and used for drug sensitivity assays. For stable transfection, cells at 30-40% confluence were incubated overnight with […] of plasmid DNA, using FUGENE® 6 transfectin reagent (Roche Molecular Biochemical, Monza, Italy) according to the manufacturer's instructions. Cells were then selected in puromycin (1 μg/ml) (Invitrogen life Technologies, La Jolla, Calif., USA.) After 20 to 30 days, viable puromycin-resistant colonies from HCC1937 transfections were expanded and screened. The clones that stably expressed […] and retained growth potential were assayed for BRCA1 expression by Western blot analysis. By Western blot analysis, we evaluated the restoration of BRCA1 expression in the puromycin-resistant cDNA/transfectant cells.
(§2) The MTT cytotoxicity assay was performed by incubating with MTT and monitoring the MTT formazan formed by viable cells with a microplate reader at a wavelength of 560 nm; the survival, ratio was determined using the formula: (Atest−Ablank)/(Acontrol−Ablank)×100%. The cytotoxicity was determined in 96-well plates using the semiautomatic fluorescence-based Digital Imaging Microscopy System (DIMSCAN). DIMSCAN uses digital imaging microscopy to quantify viable cells, which selectively accumulate FDA (fluorescein diacetate; Alfa Aesar, Ward Hill, Mass.). DIMSCAN is capable of measuring cytotoxicity over a 4 log dynamic range by quantifying total fluorescence per well (which is proportional to the number of viable cells) after elimination of the background fluorescence by digital thresholding and eosin Y (Mallinckrodt Baker, Center Valley, Pa.) quenching. Cells were seeded into 96-well plates in 100 μL of complete medium at 2,000 to 5,000 cells per well depending on cell line growth rate. After overnight incubation, test compound was added to each well at various concentrations in 50 μL of culture medium. […] Total fluorescence per well was then measured using DIMSCAN, and the results were expressed as the ratio of the fluorescence in treated wells to the fluorescence in untreated wells (survival fraction).

MDA-MB-231 = assay: Cytotoxicity, MDA-MB-231 cells; assay type: cell-based, human
Protocol: as §1
(§3) The MTT cytotoxicity assay was performed by incubating with MTT and monitoring the MTT formazan formed by viable cells with a microplate reader at a wavelength of 560 nm; the survival, ratio was determined using the formula: (Atest−Ablank)/(Acontrol−Ablank)×100%. The cytotoxicity was determined in 96-well plates using the semiautomatic fluorescence-based Digital Imaging Microscopy System (DIMSCAN). DIMSCAN uses digital imaging microscopy to quantify viable cells, which selectively accumulate FDA (fluorescein diacetate; Alfa Aesar, Ward Hill, Mass.). DIMSCAN is capable of measuring cytotoxicity over a 4 log dynamic range by quantifying total fluorescence per well (which is proportional to the number of viable cells) after elimination of the background fluorescence by digital thresholding and eosin Y (Mallinckrodt Baker, Center Valley, Pa.) quenching. Cells were seeded into 96-well plates in 100 μL of complete medium at 2,000 to 5,000 cells per well depending on cell line growth rate. After overnight incubation, test compound was added to each well at various concentrations in 50 μL of culture medium. After incubation with the drugs for 96 hours at 37° C., FDA (final concentration: […]) and eosin Y [final concentration: 0.1% (w/v)] were added to each well and the cells were incubated for an additional 20 minutes at 37° C. Total fluorescence per well was then measured using DIMSCAN, and the results were expressed as the ratio of the fluorescence in treated wells to the fluorescence in untreated wells (survival fraction).

HCC1937 = assay: Cytotoxicity, HCC1937 cells; assay type: cell-based, human
Protocol: as §1
(§4) The MTT cytotoxicity assay was performed by incubating with MTT and monitoring the MTT formazan formed by viable cells with a microplate reader at a wavelength of 560 nm; the survival, ratio was determined using the formula: (Atest−Ablank)/(Acontrol−Ablank)×100%. The cytotoxicity was determined in 96-well plates using the semiautomatic fluorescence-based Digital Imaging Microscopy System (DIMSCAN). DIMSCAN uses digital imaging microscopy to quantify viable cells, which selectively accumulate FDA (fluorescein diacetate; Alfa Aesar, Ward Hill, Mass.). DIMSCAN is capable of measuring cytotoxicity over a 4 log dynamic range by quantifying total fluorescence per well (which is proportional to the number of viable cells) after elimination of the background fluorescence by digital thresholding and eosin Y (Mallinckrodt Baker, Center Valley, Pa.) quenching. […]

OVCAR-4 = assay: Cytotoxicity, OVCAR-4 cells; assay type: cell-based, human; conditions: read-out: IC50, mean ± SEM
Protocol: as §1, §3

KB-Gem = assay: Cytotoxicity, KB-Gem cells; assay type: cell-based, human; conditions: gemcitabine-resistant, read-out: IC50, mean ± SEM
Protocol: as §1, §3

A2780 = assay: Cytotoxicity, A2780 cells; assay type: cell-based, human; conditions: A2780, cisplatin-sensitive ovarian cells, read-out: IC50, mean ± SEM
Protocol: as §1, §3

TOV112D = assay: Cytotoxicity, TOV112D cells; assay type: cell-based, human; conditions: read-out: IC50, mean ± SEM
Protocol: as §1, §3

UWB1.289 = assay: Cytotoxicity, UWB1.289 cells; assay type: cell-based, human; conditions: read-out: IC50, mean ± SEM
Protocol: as §1, §2

OV90 = assay: Cytotoxicity (MTT/DIMSCAN), OV90 cells; assay type: cell-based, human; conditions: read-out: IC50, mean ± SEM
Protocol: as §1, §2

OVCAR-3 = assay: Cytotoxicity, OVCAR-3 cells; assay type: cell-based, human; conditions: read-out: IC50, mean ± SEM
Protocol: as §1, §3

HCC1937 + BRCA1 = assay: Cytotoxicity, HCC1937+BRCA1 cells; assay type: cell-based, human
Protocol: as §1, §4

A2780-DDDP = assay: Cytotoxicity, A2780-DDDP cells; assay type: cell-based, human; conditions: cisplatin-resistant ovarian cells, read-out: IC50, mean ± SEM
Protocol: as §1, §3

SKBR3 = assay: Cytotoxicity, SKBR3 cells; assay type: cell-based, human
Protocol: as §1, §4

KB-7D = assay: Cytotoxicity, KB-7D cells; assay type: cell-based, human; conditions: cisplatin-resistant, read-out: IC50, mean ± SEM
Protocol: as §1, §3

MCF-7 = assay: Cytotoxicity, MCF-7 cells; assay type: cell-based, human
Protocol: as §1, §4

zebrafish embryos = assay: Zebrafish genotoxicity assay; assay type: in vivo, Danio rerio; conditions: wild-type zebrafish embryos, HU 0-50 mM
Protocol: Zebrafish (Danio rerio) were obtained from zebrafish Core facility of Taipei Medical University and maintained at 28° C. on a 14 h light/10 h dark cycle. Embryos were incubated at 28° C. and different developmental stages were determined as described (25). Wild-type embryos were treated with different concentrations of HU (0, 5, […], 20, 50 mM) or COH29 (0, 10, 20, 50, 100 μM) at 20 hpf to evaluate the mutagenic effect. Fifteen embryos were treated per well condition. […] Embryos were observed using an Olympus IX70-FLA inverted fluorescence microscope. Images were taken using SPOT digital camera system (Diagnostic Instruments, Sterling Heights, Mich., USA) and assembled with ImageJ software (26).

[1] = Homo sapiens, UWB1289, UWB1.289 + BRCA1
[2] = Homo sapiens, MDA-MB-231, TNBC, read-out: IC50, mean ± SEM
[3] = Homo sapiens, UWB1289, UWB1.289

C[C@]1(c2nc3c(C(N)=O)cccc3[nH]2)CCCN1 [ABT-888] was tested, and the “effect on PARP1 protein level” value (PARP1 protein) was “significant reduction of PARP1”.

N.N.[Cl][Pt][Cl] [Cisplatin] was tested, and the IC50 (UWB1.289 + BRCA1; UWB1.289 + BRCA1 (WT), COH29 72 h) was 7400 ± 2020 nM, the IC50 (MDA-MB-231; MDA-MB-231, TNBC, read-out: IC50, mean ± SEM) was 3740 ± 210 nM and the IC50 (HCC1937; HCC1937, triple negative, BRCA1 mutant, COH29 72 h) was 2460 ± 110 nM. The IC50 (OVCAR-4) was 2250 ± 250 nM, the IC50 (KB-Gem) was 380 ± 30 nM and the IC50 (A2780) was 690 nM. For the same compound, the IC50 (TOV112D) was 1320 ± 200 nM, the IC50 (UWB1.289; UWB1.289, BRCA1-defective ovarian cancer cells, COH29 72 h) was 1430 ± 870 nM and the IC50 (OV90; OV90, wild-type BRCA1 ovarian cancer cells, COH29 72 h) was 1570 ± 290 nM. The IC50 (OVCAR-3) was 1640 ± 40 nM, the IC50 (HCC1937 + BRCA1; HCC1937 + BRCA1, triple negative, COH29 72 h) was 2930 ± 550 nM and the IC50 (A2780-DDDP) was 5020 ± 1180 nM. The IC50 (SKBR3; SKBR3, ER− PR(−) HER2+) was 990 ± 240 nM, the IC50 (KB-7D) was 7500 ± 300 nM and the IC50 (MCF-7; MCF-7, ER+ PR(+)) was 12100 ± 1020 nM.

Nc1ccn([C@@H]2O[C@H](CO)[C@@H](O)C2(F)F)c(=O)n1 [Gemcitabine] was tested, and the IC50 (UWB1.289 + BRCA1; [1]) was 42.2 ± 0.62 nM, the IC50 (MDA-MB-231; [2]) was 17 ± 1.33 nM and the IC50 (OVCAR-4; Homo sapiens) was 55.1 ± 3.55 nM. For the same compound, the IC50 (KB-Gem; Homo sapiens) was 60 ± 10 nM, the IC50 (A2780; Homo sapiens) was 25.5 ± 1.66 nM and the IC50 (TOV112D; Homo sapiens) was 28.4 ± 4.18 nM. It also gave an IC50 (UWB1.289; [3]) of 56.48 ± 0.32 nM, an IC50 (OV90; Homo sapiens, OV-90, OV90) of 78.3 ± 11.6 nM and an IC50 (OVCAR-3; Homo sapiens) of 118 nM. It also gave an IC50 (A2780-DDDP; Homo sapiens) of 36.3 ± 0.79 nM and an IC50 (KB-7D; Homo sapiens, KB7D) of 0.69 ± 0.02 nM.

With NC(=O)NO [HU, hydroxyurea] the developmental defects (zebrafish embryos; COH29 0-100 μM) was “caused defects in eyes and heart by 4 dpf” and the “number of mutant embryos” value (zebrafish embryos) was “dose-dependent increase in the number of mutant embryos”.

In the case of CC(=O)O[C@H]1C(=O)[C@@]2(C)[C@H]([C@H](OC(=O)c3ccccc3)[C@]3(O)C[C@H](OC(=O)[C@H](O)[C@@H](NC(=O)c4ccccc4)c4ccccc4)C(C)=C1C3(C)C)[C@]1(OC(C)=O)CO[C@@H]1C[C@@H]2O [Paclitaxel], the IC50 (UWB1.289 + BRCA1; [1]) is reported as 13 ± 1.62 nM, the IC50 (MDA-MB-231; [2]) is reported as 2.01 ± 0.57 nM and the IC50 (MDA-MB-231; Homo sapiens, MDA-MB-231, Table 3 paclitaxel column, read-out: IC50) is reported as 2.01 ± 0.57 nM. For the same compound, the IC50 (HCC1937; Homo sapiens, HCC1937, Table 3 paclitaxel column) was 4.04 ± 0.44 nM, the IC50 (OVCAR-4; Homo sapiens) was 5.55 ± 0.05 nM and the IC50 (KB-Gem; Homo sapiens) was 1.95 ± 0.15 nM. It also gave an IC50 (A2780; Homo sapiens) of 3.6 ± 1.67 nM, an IC50 (TOV112D; Homo sapiens) of 6.45 ± 1.05 nM and an IC50 (UWB1.289; [3]) of 13.9 ± 0.7 nM. For the same compound, the IC50 (OV90; Homo sapiens, OV-90, OV90) was 9.09 ± 0.41 nM, the IC50 (OVCAR-3; Homo sapiens) was 2.89 ± 0.07 nM and the IC50 (HCC1937 + BRCA1; Homo sapiens, HCC1937 + BRCA1, Table 3 paclitaxel column) was 5.4 ± 0.07 nM. For the same compound, the IC50 (A2780-DDDP; Homo sapiens) was 11.4 ± 1.49 nM, the IC50 (SKBR3; Homo sapiens, SK-BR-3, SKBR3, Table 3 paclitaxel column) was 3.37 ± 0.08 nM and the IC50 (KB-7D; Homo sapiens, KB7D) was 5.17 ± 0.17 nM. The IC50 (MCF-7; Homo sapiens, MCF7, MCF-7, Table 3 paclitaxel column) was 6.36 ± 1.11 nM.
